ChEMBL document CHEMBL3817824, “Synthesis and biological evaluation of new [1,2,4]triazolo[4,3-a]pyridine derivatives as potential c-Met inhibitors” (Bioorg Med Chem, 2016)

Assays:
[1] = Cytotoxicity against human MKN45 cells assessed as reduction in cell survival incubated for 3 days by cell titre-glo assay; assay type: functional, cell-based; conditions: MKN-45, 72 h
[2] = test system: NCI-H1993; test: Cytotoxicity against human NCI-H1993 cells assessed as reduction in cell survival incubated for 3 days by cell titre-glo assay; assay type: functional, cell-based; conditions: NCI-H1993, 72 h
[3] = target: Tyrosine-protein kinase ABL2 (Homo sapiens, UniProt P42684); test: Inhibition of ARG (unknown origin) incubated for 1 hr by spectrophotometric analysis
[4] = target: Protein-tyrosine kinase 6 (Homo sapiens, UniProt Q13882); test: Inhibition of BRK (unknown origin) incubated for 1 hr by spectrophotometric analysis
[5] = target: Mast/stem cell growth factor receptor Kit (Homo sapiens, UniProt P10721); test: Inhibition of c-Kit (unknown origin) incubated for 1 hr by spectrophotometric analysis
[6] = target: Epidermal growth factor receptor (Homo sapiens, UniProt P00533); test: Inhibition of EGFR (unknown origin) incubated for 1 hr by spectrophotometric analysis
[7] = target: Epidermal growth factor receptor (Homo sapiens, UniProt P00533, T790M); test: Inhibition of EGFR T790M mutant (unknown origin) incubated for 1 hr by spectrophotometric analysis; assay type: protein assay
[8] = target: Ephrin type-A receptor 1 (Homo sapiens, UniProt P21709); test: Inhibition of EPHA1 (unknown origin) incubated for 1 hr by spectrophotometric analysis
[9] = target: Ephrin type-B receptor 1 (Homo sapiens, UniProt P54762); test: Inhibition of EPHB1 (unknown origin) incubated for 1 hr by spectrophotometric analysis
[10] = target: Mitogen-activated protein kinase 1 (Homo sapiens, UniProt P28482); test: Inhibition of ERK2 (unknown origin) incubated for 1 hr by spectrophotometric analysis
[11] = target: Tyrosine-protein kinase Fer (Homo sapiens, UniProt P16591); test: Inhibition of FER (unknown origin) incubated for 1 hr by spectrophotometric analysis
[12] = target: Vascular endothelial growth factor receptor 1 (Homo sapiens, UniProt P17948); test: Inhibition of FLT1 (unknown origin) incubated for 1 hr by spectrophotometric analysis
[13] = target: Receptor-type tyrosine-protein kinase FLT3 (Homo sapiens, UniProt P36888); test: Inhibition of FLT3 (unknown origin) incubated for 1 hr by spectrophotometric analysis
[14] = target: Vascular endothelial growth factor receptor 3 (Homo sapiens, UniProt P35916); test: Inhibition of FLT4 (unknown origin) incubated for 1 hr by spectrophotometric analysis
[15] = target: Tyrosine-protein kinase Fyn (Homo sapiens, UniProt P06241); test: Inhibition of FYN (unknown origin) incubated for 1 hr by spectrophotometric analysis
[16] = target: Glycogen synthase kinase-3 beta (Homo sapiens, UniProt P49841); test: Inhibition of GSK3beta (unknown origin) incubated for 1 hr by spectrophotometric analysis
[17] = target: Insulin-like growth factor 1 receptor (Homo sapiens, UniProt P08069); test: Inhibition of IGF-1R (unknown origin) incubated for 1 hr by spectrophotometric analysis
[18] = target: Tyrosine-protein kinase JAK1 (Homo sapiens, UniProt P23458); test: Inhibition of JAK1 (unknown origin) incubated for 1 hr by spectrophotometric analysis
[19] = target: Vascular endothelial growth factor receptor 2 (Homo sapiens, UniProt P35968); test: Inhibition of KDR (unknown origin) incubated for 1 hr by spectrophotometric analysis
[20] = target: Tyrosine-protein kinase Lck (Homo sapiens, UniProt P06239); test: Inhibition of LCK (unknown origin) incubated for 1 hr by spectrophotometric analysis
[21] = target: Leukocyte tyrosine kinase receptor (Homo sapiens, UniProt P29376); test: Inhibition of LTK (unknown origin) incubated for 1 hr by spectrophotometric analysis
[22] = target: Tyrosine-protein kinase Lyn (Homo sapiens, UniProt P07948); test: Inhibition of LYNA (unknown origin) incubated for 1 hr by spectrophotometric analysis
[23] = target: Mitogen-activated protein kinase 14 (Homo sapiens, UniProt Q16539); test: Inhibition of p38alpha (unknown origin) incubated for 1 hr by spectrophotometric analysis
[24] = target: Proto-oncogene tyrosine-protein kinase ROS (Homo sapiens, UniProt P08922); test: Inhibition of ROS (unknown origin) incubated for 1 hr by spectrophotometric analysis
[25] = target: Proto-oncogene tyrosine-protein kinase Src (Homo sapiens, UniProt P12931); test: Inhibition of SRC (unknown origin) incubated for 1 hr by spectrophotometric analysis
[26] = target: Tyrosine-protein kinase SYK (Homo sapiens, UniProt P43405); test: Inhibition of SYK (unknown origin) incubated for 1 hr by spectrophotometric analysis
[27] = target: High affinity nerve growth factor receptor (Homo sapiens, UniProt P04629); test: Inhibition of TRKA (unknown origin) incubated for 1 hr by spectrophotometric analysis

Chain of Tyrosine-protein kinase Lck (P06239 whole entry): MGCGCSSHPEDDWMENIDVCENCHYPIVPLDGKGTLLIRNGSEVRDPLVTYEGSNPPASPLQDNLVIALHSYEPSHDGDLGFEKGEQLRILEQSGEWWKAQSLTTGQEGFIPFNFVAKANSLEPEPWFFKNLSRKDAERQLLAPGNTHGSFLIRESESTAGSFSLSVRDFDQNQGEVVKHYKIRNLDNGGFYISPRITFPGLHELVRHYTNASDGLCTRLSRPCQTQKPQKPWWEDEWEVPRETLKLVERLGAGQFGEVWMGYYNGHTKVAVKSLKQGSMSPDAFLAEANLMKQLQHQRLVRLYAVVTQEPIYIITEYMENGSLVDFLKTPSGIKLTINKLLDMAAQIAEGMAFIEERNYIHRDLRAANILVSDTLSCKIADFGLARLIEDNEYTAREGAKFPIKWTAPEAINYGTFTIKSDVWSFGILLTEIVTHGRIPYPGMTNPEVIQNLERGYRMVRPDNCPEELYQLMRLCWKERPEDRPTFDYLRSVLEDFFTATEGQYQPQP
Chain of Proto-oncogene tyrosine-protein kinase ROS (P08922 whole entry): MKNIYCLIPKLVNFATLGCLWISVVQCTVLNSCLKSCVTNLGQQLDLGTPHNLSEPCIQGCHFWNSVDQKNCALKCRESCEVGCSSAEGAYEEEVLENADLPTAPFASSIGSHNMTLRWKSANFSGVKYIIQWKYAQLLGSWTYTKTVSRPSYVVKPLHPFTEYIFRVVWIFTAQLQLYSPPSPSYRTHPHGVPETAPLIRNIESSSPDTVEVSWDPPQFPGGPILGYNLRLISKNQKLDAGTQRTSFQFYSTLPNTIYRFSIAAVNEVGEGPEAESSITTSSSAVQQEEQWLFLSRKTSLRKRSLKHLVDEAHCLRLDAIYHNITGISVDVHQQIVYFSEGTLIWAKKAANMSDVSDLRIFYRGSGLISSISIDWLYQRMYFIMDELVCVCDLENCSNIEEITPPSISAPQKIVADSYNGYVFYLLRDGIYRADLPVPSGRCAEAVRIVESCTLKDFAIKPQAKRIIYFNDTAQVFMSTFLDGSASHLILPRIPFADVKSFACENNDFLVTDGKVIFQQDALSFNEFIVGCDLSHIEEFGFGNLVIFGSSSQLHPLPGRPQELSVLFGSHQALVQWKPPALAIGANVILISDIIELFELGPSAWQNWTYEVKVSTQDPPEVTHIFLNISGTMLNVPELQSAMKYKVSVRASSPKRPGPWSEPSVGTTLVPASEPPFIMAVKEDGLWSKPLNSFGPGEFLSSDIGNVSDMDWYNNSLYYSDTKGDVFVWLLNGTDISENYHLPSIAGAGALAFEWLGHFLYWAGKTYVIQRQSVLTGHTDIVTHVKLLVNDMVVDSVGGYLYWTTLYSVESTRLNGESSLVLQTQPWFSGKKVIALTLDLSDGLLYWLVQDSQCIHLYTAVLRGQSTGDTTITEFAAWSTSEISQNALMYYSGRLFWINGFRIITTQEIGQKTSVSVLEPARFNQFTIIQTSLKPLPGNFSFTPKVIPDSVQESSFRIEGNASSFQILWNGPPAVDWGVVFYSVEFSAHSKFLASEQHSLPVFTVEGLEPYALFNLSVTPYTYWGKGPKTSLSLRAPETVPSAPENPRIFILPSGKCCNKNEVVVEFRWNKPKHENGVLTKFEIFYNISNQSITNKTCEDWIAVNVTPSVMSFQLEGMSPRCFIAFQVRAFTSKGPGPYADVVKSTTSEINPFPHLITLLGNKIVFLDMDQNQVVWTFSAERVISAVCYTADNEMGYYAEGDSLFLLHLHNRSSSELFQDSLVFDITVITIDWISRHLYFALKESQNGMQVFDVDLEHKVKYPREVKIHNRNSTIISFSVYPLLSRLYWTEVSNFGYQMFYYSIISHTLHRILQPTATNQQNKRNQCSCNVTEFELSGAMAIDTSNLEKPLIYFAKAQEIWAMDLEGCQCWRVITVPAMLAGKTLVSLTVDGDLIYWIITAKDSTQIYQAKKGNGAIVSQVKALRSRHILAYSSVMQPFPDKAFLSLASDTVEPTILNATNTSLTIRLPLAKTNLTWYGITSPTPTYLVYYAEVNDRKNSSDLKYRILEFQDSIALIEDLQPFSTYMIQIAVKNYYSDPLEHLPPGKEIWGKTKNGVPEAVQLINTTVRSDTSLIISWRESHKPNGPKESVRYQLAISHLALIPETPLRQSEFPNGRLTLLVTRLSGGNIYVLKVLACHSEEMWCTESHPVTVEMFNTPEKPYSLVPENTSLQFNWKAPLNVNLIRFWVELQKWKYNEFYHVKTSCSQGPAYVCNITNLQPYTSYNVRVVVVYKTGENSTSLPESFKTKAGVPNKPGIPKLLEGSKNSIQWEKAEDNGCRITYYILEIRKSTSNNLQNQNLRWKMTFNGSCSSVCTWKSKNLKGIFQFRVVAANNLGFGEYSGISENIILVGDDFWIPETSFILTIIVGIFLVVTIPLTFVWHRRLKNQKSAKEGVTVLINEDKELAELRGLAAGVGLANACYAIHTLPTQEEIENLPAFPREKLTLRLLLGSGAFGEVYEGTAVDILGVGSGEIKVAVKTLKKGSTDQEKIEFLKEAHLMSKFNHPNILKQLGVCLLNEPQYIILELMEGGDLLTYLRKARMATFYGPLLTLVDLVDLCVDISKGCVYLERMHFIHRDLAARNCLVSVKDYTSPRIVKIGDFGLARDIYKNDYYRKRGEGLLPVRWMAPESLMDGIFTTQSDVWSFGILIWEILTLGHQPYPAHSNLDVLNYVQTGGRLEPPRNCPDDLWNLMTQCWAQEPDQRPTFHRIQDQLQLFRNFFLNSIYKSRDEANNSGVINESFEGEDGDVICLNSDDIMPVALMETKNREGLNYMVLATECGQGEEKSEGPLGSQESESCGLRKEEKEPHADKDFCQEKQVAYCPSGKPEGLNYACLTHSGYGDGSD
Chain of Mast/stem cell growth factor receptor Kit (P10721 whole entry): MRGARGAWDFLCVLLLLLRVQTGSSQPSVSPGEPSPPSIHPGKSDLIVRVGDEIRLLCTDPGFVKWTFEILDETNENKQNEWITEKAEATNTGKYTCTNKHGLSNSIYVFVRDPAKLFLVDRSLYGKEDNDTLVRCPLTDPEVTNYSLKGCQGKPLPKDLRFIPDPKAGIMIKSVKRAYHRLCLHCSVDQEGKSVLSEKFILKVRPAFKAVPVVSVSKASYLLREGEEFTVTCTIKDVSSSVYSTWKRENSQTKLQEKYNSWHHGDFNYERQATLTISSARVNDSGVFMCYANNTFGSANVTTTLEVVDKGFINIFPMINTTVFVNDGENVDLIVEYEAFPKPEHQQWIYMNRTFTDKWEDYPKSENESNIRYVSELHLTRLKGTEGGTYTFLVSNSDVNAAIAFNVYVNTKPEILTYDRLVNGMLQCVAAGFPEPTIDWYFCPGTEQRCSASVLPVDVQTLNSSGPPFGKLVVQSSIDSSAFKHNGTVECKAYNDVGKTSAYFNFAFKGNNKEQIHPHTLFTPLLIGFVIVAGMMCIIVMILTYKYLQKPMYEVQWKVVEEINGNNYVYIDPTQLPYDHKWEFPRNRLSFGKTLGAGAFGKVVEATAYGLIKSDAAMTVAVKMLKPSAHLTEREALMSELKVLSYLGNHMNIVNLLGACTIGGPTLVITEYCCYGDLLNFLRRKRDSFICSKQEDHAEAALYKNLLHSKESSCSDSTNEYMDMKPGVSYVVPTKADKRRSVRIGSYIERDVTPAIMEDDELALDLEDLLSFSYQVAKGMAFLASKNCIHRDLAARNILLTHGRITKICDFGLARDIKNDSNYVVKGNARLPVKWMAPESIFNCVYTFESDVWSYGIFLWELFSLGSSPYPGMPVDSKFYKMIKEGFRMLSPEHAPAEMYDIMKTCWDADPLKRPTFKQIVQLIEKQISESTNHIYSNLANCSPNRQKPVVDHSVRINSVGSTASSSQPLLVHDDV
Chain of Epidermal growth factor receptor (Homo sapiens, UniProt P00533, T790M) (P00533 25-1210 T790M limits assumed): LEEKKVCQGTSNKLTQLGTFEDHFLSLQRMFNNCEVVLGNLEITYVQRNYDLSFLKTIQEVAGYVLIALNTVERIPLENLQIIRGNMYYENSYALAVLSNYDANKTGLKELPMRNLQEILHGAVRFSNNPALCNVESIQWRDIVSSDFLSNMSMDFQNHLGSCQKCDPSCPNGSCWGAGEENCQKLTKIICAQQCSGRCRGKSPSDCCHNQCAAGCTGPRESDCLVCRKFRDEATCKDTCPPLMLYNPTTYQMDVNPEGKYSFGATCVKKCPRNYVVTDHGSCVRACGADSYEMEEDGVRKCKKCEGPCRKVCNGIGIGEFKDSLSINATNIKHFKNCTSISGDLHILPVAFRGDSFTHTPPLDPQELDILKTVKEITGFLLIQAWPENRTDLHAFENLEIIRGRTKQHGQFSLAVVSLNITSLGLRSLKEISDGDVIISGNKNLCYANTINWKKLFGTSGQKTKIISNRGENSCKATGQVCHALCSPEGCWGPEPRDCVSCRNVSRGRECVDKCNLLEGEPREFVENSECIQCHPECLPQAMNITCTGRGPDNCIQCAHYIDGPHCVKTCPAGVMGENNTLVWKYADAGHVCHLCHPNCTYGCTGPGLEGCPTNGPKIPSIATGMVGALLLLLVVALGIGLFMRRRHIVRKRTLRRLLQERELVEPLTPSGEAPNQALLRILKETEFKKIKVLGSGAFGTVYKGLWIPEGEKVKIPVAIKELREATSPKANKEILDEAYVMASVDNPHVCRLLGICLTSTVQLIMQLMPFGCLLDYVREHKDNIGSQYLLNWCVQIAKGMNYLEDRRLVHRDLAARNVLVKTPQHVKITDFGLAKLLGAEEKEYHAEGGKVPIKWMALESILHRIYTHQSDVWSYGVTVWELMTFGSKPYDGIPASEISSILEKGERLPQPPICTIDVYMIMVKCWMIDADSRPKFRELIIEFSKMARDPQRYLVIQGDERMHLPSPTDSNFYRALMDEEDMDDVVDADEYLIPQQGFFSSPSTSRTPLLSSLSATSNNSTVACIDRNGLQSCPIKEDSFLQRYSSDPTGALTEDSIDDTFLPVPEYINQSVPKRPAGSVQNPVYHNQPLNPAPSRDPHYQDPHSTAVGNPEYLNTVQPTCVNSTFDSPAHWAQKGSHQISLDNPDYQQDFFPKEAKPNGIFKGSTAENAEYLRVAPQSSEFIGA

CN1C(=O)COc2c1cnc1ccc(Sc3nnc4c(F)cc(-c5cnn(C)c5)cn34)cc21 [DALMELITINIB] showed an IC50 [1] of 0.006 µM, an IC50 [2] of 0.014 µM and an IC50 [3] of over 30 µM. The IC50 [4] was over 30 µM, the IC50 [5] was over 30 µM and the IC50 [6] was over 30 µM. For the same molecule, the IC50 [7] was over 30 µM, the IC50 [8] was over 30 µM and the IC50 [9] was over 30 µM. For the same molecule, the IC50 [10] was over 30 µM, the IC50 [11] was over 30 µM and the IC50 [12] was over 30 µM. It also gave an IC50 [13] of over 30 µM, an IC50 [14] of over 30 µM and an IC50 [15] of 11.2 µM. It also gave an IC50 [16] of 16.2 µM, an IC50 [17] of over 30 µM and an IC50 [18] of over 30 µM. The IC50 [19] was over 30 µM, the IC50 [20] was over 30 µM and the IC50 [21] was over 30 µM. For the same molecule, the IC50 [22] was over 30 µM, the IC50 [23] was over 30 µM and the IC50 [24] was 2.83 µM. For the same molecule, the IC50 [25] was 15.5 µM, the IC50 [26] was over 30 µM and the IC50 [27] was over 30 µM.
